In the NIST ThermoML archive (doi:10.1016/j.jct.2014.07.001):

Assay: xn = mol fraction of the nth substance listed
Details: Drop volume

CCCC[n+]1ccc(C)cc1.F[B-](F)(F)F [1-butyl-4-methylpyridinium tetrafluoroborate] + CCO
surface tension liquid-gas [mN/m]
Details | 293.15 K | 303.15 K | 313.15 K | 323.15 K
x1 = 0.0497 | 22.7 | 22.02 | 21.32 | 20.63
x1 = 0.0993 | 23.17 | 22.6 | 22.02 | 21.44
x1 = 0.1995 | 24.47 | 24.08 | 23.68 | 23.27
x1 = 0.2946 | 25.95 | 25.68 | 25.41 | 25.14
x1 = 0.36 | 27.2 | 26.98 | 26.77 | 26.55
x1 = 0.4269 | 28.57 | 28.38 | 28.22 | 28.04
x1 = 0.4882 | 29.99 | 29.81 | 29.65 | 29.49
x1 = 0.589 | 32.66 | 32.44 | 32.25 | 32.05
x1 = 0.7001 | 35.92 | 35.61 | 35.34 | 35.05
x1 = 0.7895 | 38.75 | 38.33 | 37.95 | 37.57
x1 = 0.8345 | 40.28 | 39.79 | 39.35 | 38.89
x1 = 0.8805 | 41.85 | 41.29 | 40.77 | 40.25
x1 = 1 | 45.82 | 45.09 | 44.41 | 43.71

CCCC[n+]1cccc(C)c1.F[B-](F)(F)F [1-butyl-3-methylpyridinium tetrafluoroborate] + CO
surface tension liquid-gas [mN/m]
Details | 293.15 K | 303.15 K | 313.15 K | 323.15 K
x1 = 0.0489 | 23.93 | 23.18 | 22.36 | 21.55
x1 = 0.1011 | 25.33 | 24.62 | 23.88 | 23.15
x1 = 0.1984 | 27.89 | 27.26 | 26.63 | 26.04
x1 = 0.2961 | 30.43 | 29.87 | 29.36 | 28.9
x1 = 0.4021 | 33.15 | 32.66 | 32.26 | 31.9
x1 = 0.4935 | 35.36 | 34.89 | 34.55 | 34.25
x1 = 0.5892 | 37.57 | 37.12 | 36.81 | 36.56
x1 = 0.688 | 39.67 | 39.2 | 38.86 | 38.62
x1 = 0.7395 | 40.72 | 40.22 | 39.87 | 39.6
x1 = 0.8001 | 41.87 | 41.35 | 40.95 | 40.65
x1 = 0.8803 | 43.3 | 42.72 | 42.23 | 41.86
x1 = 0.935 | 44.21 | 43.56 | 42.99 | 42.53
x1 = 1 | 45.21 | 44.48 | 43.8 | 43.24

CO [methanol] + CCCC[n+]1ccc(C)cc1.F[B-](F)(F)F
x2 = 0
Details | surface tension liquid-gas [mN/m]
293.15 K | 22.6
303.15 K | 21.81
313.15 K | 20.93
323.15 K | 20.05

CCC[n+]1ccccc1.F[B-](F)(F)F [1-propylpyridinium tetrafluoroborate] + CO
surface tension liquid-gas [mN/m]
Details | 293.15 K | 303.15 K | 313.15 K | 323.15 K
x1 = 0.0478 | 23.84 | 23.07 | 22.2 | 21.35
x1 = 0.0964 | 25.01 | 24.31 | 23.48 | 22.68
x1 = 0.1993 | 27.35 | 26.84 | 26.18 | 25.55
x1 = 0.3036 | 29.78 | 29.49 | 28.99 | 28.48
x1 = 0.3934 | 32.15 | 31.84 | 31.46 | 31.02
x1 = 0.4987 | 35.23 | 34.81 | 34.46 | 34.04
x1 = 0.5926 | 38.18 | 37.63 | 37.21 | 36.76
x1 = 0.6946 | 41.44 | 40.83 | 40.29 | 39.77
x1 = 0.7836 | 44.31 | 43.66 | 43.04 | 42.45
x1 = 0.8822 | 47.5 | 46.81 | 46.15 | 45.44
x1 = 0.945 | 49.5 | 48.78 | 48.1 | 47.36
x1 = 1 | 51.29 | 50.51 | 49.79 | 49.03

CCO [ethanol] + CCCC[n+]1ccc(C)cc1.F[B-](F)(F)F
x2 = 0
Details | surface tension liquid-gas [mN/m]
293.15 K | 22.28
303.15 K | 21.49
313.15 K | 20.66
323.15 K | 19.84

CO [methanol] + CCCC[n+]1cccc(C)c1.F[B-](F)(F)F
x2 = 0
Details | surface tension liquid-gas [mN/m]
293.15 K | 22.6
303.15 K | 21.81
313.15 K | 20.93
323.15 K | 20.05

CO [methanol] + CCCC[n+]1ccccc1.F[B-](F)(F)F
x2 = 0
Details | surface tension liquid-gas [mN/m]
293.15 K | 22.6
303.15 K | 21.81
313.15 K | 20.93
323.15 K | 20.05

CCCC[n+]1ccc(C)cc1.F[B-](F)(F)F [1-butyl-4-methylpyridinium tetrafluoroborate] + CO
surface tension liquid-gas [mN/m]
Details | 293.15 K | 303.15 K | 313.15 K | 323.15 K
x1 = 0.0247 | 23.3 | 22.55 | 21.71 | 20.88
x1 = 0.0983 | 25.35 | 24.66 | 23.92 | 23.23
x1 = 0.195 | 27.93 | 27.31 | 26.68 | 26.12
x1 = 0.2914 | 30.53 | 29.98 | 29.46 | 29.05
x1 = 0.3909 | 33.11 | 32.62 | 32.2 | 31.91
x1 = 0.4915 | 35.62 | 35.17 | 34.81 | 34.6
x1 = 0.5378 | 36.77 | 36.34 | 36.02 | 35.84
x1 = 0.61 | 38.46 | 38.04 | 37.73 | 37.57
x1 = 0.6875 | 40.19 | 39.77 | 39.45 | 39.29
x1 = 0.7911 | 42.37 | 41.9 | 41.55 | 41.32
x1 = 0.842 | 43.32 | 42.81 | 42.4 | 42.1
x1 = 0.8754 | 43.91 | 43.36 | 42.91 | 42.54
x1 = 1 | 45.82 | 45.09 | 44.41 | 43.71

CO [methanol] + CCC[n+]1ccccc1.F[B-](F)(F)F
x2 = 0
Details | surface tension liquid-gas [mN/m]
293.15 K | 22.6
303.15 K | 21.81
313.15 K | 20.93
323.15 K | 20.05

CCO [ethanol] + CCCC[n+]1ccccc1.F[B-](F)(F)F
x2 = 0
Details | surface tension liquid-gas [mN/m]
303.15 K | 21.49
313.15 K | 20.66
323.15 K | 19.84

CCO [ethanol] + CCCC[n+]1cccc(C)c1.F[B-](F)(F)F
x2 = 0
Details | surface tension liquid-gas [mN/m]
293.15 K | 22.28
303.15 K | 21.49
313.15 K | 20.66
323.15 K | 19.84

CCCC[n+]1ccccc1.F[B-](F)(F)F [1-butylpyridinium tetrafluoroborate] + CCO
surface tension liquid-gas [mN/m]
Details | 303.15 K | 313.15 K | 323.15 K
x1 = 0.05 | 22.16 | 21.51 | 20.72
x1 = 0.1021 | 22.72 | 22.17 | 21.41
x1 = 0.1959 | 23.54 | 23.25 | 22.74
x1 = 0.2902 | 24.72 | 24.48 | 24.26
x1 = 0.3922 | 26.57 | 26.27 | 26.25
x1 = 0.4914 | 28.89 | 28.68 | 28.54
x1 = 0.5953 | 31.85 | 31.63 | 31.45
x1 = 0.6898 | 35.04 | 34.75 | 34.53
x1 = 0.7903 | 38.62 | 38.26 | 38.01
x1 = 0.8879 | 42.28 | 41.85 | 41.5
x1 = 0.94 | 44.15 | 43.62 | 43.24
x1 = 1 | 46.3 | 45.69 | 45.11
